We go through three molecules from patent US10081660B2, “Polynucleotide, polypeptide with immunosuppressive activity, expression cassette, expression vector, host cell, pharmaceutical composition, methods for producing a polypeptide with immunosuppressive activity and for preventing or treating conditions that require immunosuppression, and use of a …” (FUNDAÇÃO BUTANTAN, priority 2013, dated 2018).

One series relates to HIII mice. The experiment in a line: Immunosuppressive activity against soluble antigen (human gamma globulin, HGG), anti-HGG antibodies by ELISA. The class given is in vivo. To be noted: for suppression of anti-HGG antibody production: single 3 μg dose intraperitoneally, HGG on Al(OH)3 after 24 hours. On the procedure: The immunosuppressive activity can also be evaluated against a soluble antigen, such as human gamma globulin (HGG), adsorbed in aluminum hydroxide, and the antibodies titer determined by ELISA.
Titers were determined by ELISA and calculated considering the highest dilution of experimental sera whose O.D. (optical density) was five times higher than those obtained for normal serum at the same dilution.
The immunosuppressive activity of the synthetic polypeptide P2 (SEQ ID NO: 5) and P6 (SEQ ID NO: 9) was evaluated against HGG, taking into account immunosuppression time after preventive treatment and antigen inoculation. In all protocols, animals received a single dose of the tested polypeptides. In this experiment, the HIII mice (5 animals/group) were treated intraperitoneally with 3 μg of P6 or 3 μg of P2, and after 24 hours, were immunized intraperitoneally with HGG adsorbed on Al(OH)3 (10 μg/animal); The untreated group was used as a positive control receiving only HGG. […] The negative control was represented by a group called normal serum, i.e., serum from untreated and non-immunized animals. O.D. values obtained from the 1:500 dilution were presented herein as average+standard deviation and were statistically analyzed by Student t test. Values were considered significant when p<0.0001 (***); p<0.005 (**); p<0.05 (*) compared to the positive control, i.e., animals immunized only with HGG. Thus, the HIII mice groups received polypeptides SEQ ID NO: 22, P2 and P6.

The subject of series [1] is Lineage HIII mice. Briefly: Immunogenicity analysis: anti-polypeptide antibodies by ELISA after immunization. The class given is in vivo. The settings on record: intraperitoneal, bleeding seven days after immunization. How it is done:
The immunogenicity is the capacity of a substance to induce an immune response. To evaluate the immunogenic potential of this invention's polypeptides, the antibody production is determined by the dosage of antibodies titer by ELISA after administration of the present invention polypeptides in potent adjuvants.
Anti-recombinant polypeptide antibodies were measured by ELISA. […] The reactions were developed by the addition of anti-mice-IgG conjugated to peroxidase (1: 7,500), followed by addition of OPD (o-Phenylenediamine dihydrochloride) and H2O2. The reading of the reactions was performed at λ492 nm on a plate spectrophotometer. The titer was established as the highest dilution of experimental sera which optical densities were three times higher than those obtained for normal serum at the same dilution. The data correspond to values obtained from two independent experiments. The significance between different groups (6 animals/group) was p<0.01.
One group was used as a positive control, receiving human gamma globulin (HGG). Bleeding was performed seven days after immunization and antibody production was assessed by ELISA.

For a further series, the system named is BALB/c mice. Briefly: Hemorrhagic activity, method of Kondo et al., intradermal injection. The class given is in vivo. To be noted: 4 mg L. muta venom or 50 mg recombinant polypeptide, skin assessed after 2 hours. How it is done:
(1960, Jpn. J. Med. Sci. Biol. 13: 43-52).
After 2 hours, the animals were euthanized and the skin removed to assess the presence of hemorrhage.

For a further series, the target named is T1, human fibrinogen (Homo sapiens, UniProt P02671+P02675+P02679).
T1 sequence (P02671 20-629 limits assumed): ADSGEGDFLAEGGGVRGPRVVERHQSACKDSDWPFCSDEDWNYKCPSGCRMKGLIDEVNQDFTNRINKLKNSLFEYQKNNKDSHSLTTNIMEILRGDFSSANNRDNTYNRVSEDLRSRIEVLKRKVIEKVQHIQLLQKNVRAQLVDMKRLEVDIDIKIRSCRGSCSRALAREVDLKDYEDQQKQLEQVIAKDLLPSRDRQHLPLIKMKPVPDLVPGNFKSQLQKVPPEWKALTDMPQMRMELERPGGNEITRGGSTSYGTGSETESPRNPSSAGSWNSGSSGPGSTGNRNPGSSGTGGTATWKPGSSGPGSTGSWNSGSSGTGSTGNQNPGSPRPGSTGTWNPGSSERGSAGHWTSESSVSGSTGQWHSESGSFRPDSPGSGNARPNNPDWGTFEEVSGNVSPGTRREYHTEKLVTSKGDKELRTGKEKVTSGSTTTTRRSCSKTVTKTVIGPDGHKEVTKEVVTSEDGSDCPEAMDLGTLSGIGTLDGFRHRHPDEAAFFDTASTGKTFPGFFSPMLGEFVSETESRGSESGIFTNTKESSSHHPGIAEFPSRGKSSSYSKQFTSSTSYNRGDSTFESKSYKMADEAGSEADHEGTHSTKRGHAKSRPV
T1 sequence (P02675 31-491): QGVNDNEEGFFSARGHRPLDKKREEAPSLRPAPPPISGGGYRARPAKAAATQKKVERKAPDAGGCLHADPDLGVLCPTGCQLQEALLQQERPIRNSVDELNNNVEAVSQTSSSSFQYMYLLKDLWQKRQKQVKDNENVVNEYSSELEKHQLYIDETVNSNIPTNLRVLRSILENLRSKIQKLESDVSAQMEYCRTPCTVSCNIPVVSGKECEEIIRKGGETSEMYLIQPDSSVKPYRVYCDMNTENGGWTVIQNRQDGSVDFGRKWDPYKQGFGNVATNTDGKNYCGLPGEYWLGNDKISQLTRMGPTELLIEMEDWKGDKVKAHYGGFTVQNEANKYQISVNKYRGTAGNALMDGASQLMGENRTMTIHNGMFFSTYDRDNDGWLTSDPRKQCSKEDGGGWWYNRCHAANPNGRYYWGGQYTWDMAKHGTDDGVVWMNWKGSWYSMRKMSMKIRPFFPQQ
T1 sequence (P02679 27-433 limits assumed): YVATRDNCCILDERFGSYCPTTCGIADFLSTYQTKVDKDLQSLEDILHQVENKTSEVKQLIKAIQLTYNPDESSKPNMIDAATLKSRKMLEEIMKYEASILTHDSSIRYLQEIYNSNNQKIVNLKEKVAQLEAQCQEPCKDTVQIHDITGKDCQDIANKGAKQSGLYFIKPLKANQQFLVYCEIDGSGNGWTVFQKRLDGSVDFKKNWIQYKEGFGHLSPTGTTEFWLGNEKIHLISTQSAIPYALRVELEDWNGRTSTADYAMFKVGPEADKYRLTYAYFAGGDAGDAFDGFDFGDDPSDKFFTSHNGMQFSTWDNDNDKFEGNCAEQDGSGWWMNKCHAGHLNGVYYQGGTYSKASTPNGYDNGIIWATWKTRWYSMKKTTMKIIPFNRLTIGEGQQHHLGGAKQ
The experiment in a line: Fibrinogenolytic assay (SDS-PAGE). The class given is biochemical. To be noted: 30 μg human fibrinogen, 5 μg polypeptide, 37° C. for 5 hours; whole L. muta venom as positive control. On the procedure:
(§1) Another possibility would be the verification of hydrolysis capacity in known substrates. The proteolytic enzymes of viperidae venoms have, for example, the capacity to hydrolyze the fibrinogen and the C3 component of the human complement system, and verifying this effect is a way of inquiring about the proteolytic activity.
To confirm the absence of enzymatic activity, one experiment was carried out a fibrinogenolytic assay. […] The samples were subjected to SDS-PAGE (10%) analysis under reducing conditions and the gel was stained with Coomassie blue.

Series [2] relates to FRET substrate Abz-FRSSRQ EDDnp. The experiment in a line: Proteolytic activity on extinguished fluorescence (FRET) substrate, spectrofluorometer. The class given is biochemical. The settings on record: 10 μg of polypeptide, fluorescence monitored for 1 hour.
For series [3], the target named is C3 component of human complement system (Homo sapiens, UniProt P01024). The experiment in a line: Cleavage of C3 component (SDS-PAGE). The class given is biochemical. To be noted: 9 μg human C3, 5 μg polypeptide, 37° C. for 5 hours.
Excerpt: as §1
According to the caption on FIG. 14: (A) Human C3; (B) Human C3+venom; (C) Human C3+polypeptide. The samples were subjected to SDS-PAGE (10%) analysis under reducing conditions and the gel was stained with Coomassie blue.

Series [4] relates to Lineage HIII mice. Briefly: Immunosuppressive activity against particulate antigen (sheep erythrocytes), hemagglutination. The class given is in vivo. The settings on record: 50 μg intraperitoneally 72 hours before immunization with sheep erythrocytes, […] cells/animal. On the procedure: For the invention's polypeptide immunosuppressive activity analysis, Lineage HIII mice constitutively known as good responder to of antibody production are inoculated, intraperitoneally, and immunized with structurally complex and highly immunogenic antigens, such as sheep erythrocytes, a particulate antigen. The animals' serum is then analyzed regarding its hemagglutination activity: the lower is the hemagglutinating effect; the higher is the immunosuppressive capacity of the evaluated compound. The immunosuppressive activity can also be evaluated against a soluble antigen, such as human gamma globulin (HGG), adsorbed in aluminum hydroxide, and the antibodies titer determined by ELISA.
An untreated group was used as positive control and received only E^S. Samples of 50 μL E^S (2% v/v) were incubated with 50 μL of the sera from immunized animals (serially diluted) in 96 U-bottom well plates for 8 hours at room temperature. As negative control, E^S were incubated with PBS only. Antibody titers were that ones whose higher serum dilutions promoted agglutination of erythrocytes. The data are representative of three independent experiments. The significance between different groups was p<0.01 (FIG. 16).

Ends that are not written are not given here.

Chain of C3 component of human complement system (P01024 23-1663): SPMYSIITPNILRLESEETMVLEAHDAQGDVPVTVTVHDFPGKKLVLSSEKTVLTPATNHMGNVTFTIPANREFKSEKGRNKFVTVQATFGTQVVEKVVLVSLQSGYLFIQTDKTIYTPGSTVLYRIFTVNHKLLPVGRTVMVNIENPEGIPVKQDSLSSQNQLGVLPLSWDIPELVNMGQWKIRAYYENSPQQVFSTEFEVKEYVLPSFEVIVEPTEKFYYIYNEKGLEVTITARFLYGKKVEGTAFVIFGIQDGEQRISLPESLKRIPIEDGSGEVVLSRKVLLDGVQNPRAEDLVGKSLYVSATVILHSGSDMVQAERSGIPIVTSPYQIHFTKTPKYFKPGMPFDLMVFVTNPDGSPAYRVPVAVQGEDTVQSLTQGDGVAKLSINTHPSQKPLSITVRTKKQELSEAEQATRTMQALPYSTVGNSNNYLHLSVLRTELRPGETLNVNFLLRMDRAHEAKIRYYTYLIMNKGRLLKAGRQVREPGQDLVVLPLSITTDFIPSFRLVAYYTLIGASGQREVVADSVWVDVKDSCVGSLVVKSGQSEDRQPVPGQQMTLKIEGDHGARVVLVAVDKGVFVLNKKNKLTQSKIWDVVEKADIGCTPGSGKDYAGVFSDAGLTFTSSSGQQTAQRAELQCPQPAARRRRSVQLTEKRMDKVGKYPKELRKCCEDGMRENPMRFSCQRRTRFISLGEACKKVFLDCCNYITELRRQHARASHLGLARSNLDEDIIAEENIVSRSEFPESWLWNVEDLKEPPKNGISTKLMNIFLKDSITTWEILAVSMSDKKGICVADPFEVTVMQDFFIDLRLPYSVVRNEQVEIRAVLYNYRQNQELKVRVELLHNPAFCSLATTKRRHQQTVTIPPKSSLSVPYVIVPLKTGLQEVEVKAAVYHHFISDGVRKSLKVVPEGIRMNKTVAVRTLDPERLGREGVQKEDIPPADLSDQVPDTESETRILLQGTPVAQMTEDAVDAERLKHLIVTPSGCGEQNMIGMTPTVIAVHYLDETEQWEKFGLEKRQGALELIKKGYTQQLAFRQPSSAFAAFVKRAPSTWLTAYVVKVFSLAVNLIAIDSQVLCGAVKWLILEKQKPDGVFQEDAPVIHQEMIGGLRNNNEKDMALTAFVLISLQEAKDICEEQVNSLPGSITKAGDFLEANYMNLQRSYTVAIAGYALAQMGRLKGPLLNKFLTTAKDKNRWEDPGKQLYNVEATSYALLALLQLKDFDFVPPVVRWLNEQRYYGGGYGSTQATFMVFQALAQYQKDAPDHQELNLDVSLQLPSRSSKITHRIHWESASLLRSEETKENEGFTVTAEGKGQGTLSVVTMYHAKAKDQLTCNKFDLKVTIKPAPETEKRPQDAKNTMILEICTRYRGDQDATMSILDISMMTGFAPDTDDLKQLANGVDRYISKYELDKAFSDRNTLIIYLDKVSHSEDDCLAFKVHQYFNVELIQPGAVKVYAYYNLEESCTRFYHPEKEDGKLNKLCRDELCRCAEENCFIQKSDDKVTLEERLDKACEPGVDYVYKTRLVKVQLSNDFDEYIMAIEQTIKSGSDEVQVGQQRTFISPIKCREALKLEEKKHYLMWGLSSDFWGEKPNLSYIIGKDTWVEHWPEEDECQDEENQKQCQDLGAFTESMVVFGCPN

Regarding NAQLLTAID [P6], in the series on HIII mice (P6 3 μg/animal or recombinant polypeptide 50 μg/animal, HGG in Al(OH)3 after 24 hours), the “inhibition of anti-HGG antibody production” value was “inhibition of anti-HGG antibody production”. Also, the “suppression of anti-HGG antibody production” value with HIII mice (after 7 days), in the series with HIII mice (after 13 days) and with HIII mice (after 36 days) was “suppression of anti-HGG antibody production was induced” each time. In addition, the “immunogenicity (production of antibodies against P6)” value in the series with Lineage HIII mice [1] (P6 (3 mg)) is “did not show immunogenicity”.
Consider AIDLADNTIGIAYTGG [P2], for which the “suppression of anti-HGG antibody production” value in the series on HIII mice (after 7 days), in the series on HIII mice (after 13 days) and with HIII mice (after 36 days) was “suppression of anti-HGG antibody production was induced” in each case.

B1: recombinant polypeptide: SEQ ID NO: 2 plus six histidine residues, T7 phage protein 10 portion and enterokinase site; approximately 30 kDa, expressed in E. coli (protein)
chain: MRGSHHHHHHGMASMTGGQQMGRDLYDDDDKDRWGSELFSQKYIELVVVADHGMFTKYNGNLNTIRTRVHEIVNTLNGFYRSLNIHISLTDLEIWSNQDLINVQSAAADTLKTFGEWRERVLLNRISHDNAQLLTAIDLADNTIGIAYTGGMCYPKNSVGIVQDHSPKTLLIAVTMAHELGHNLGMKHDENHCHCSASFCIMPPSLSEGPSYEFSDCSKDYYEMFLTKRKPQCILNKPWYHGIRSLIRLLTKPERKLSWLLPPLSNN
Consider B1, for which the hemorrhagic activity entry in the series with BALB/c mice is listed as “no hemorrhagic activity”. For the same molecule, the “immunogenic potential (production of specific anti-recombinant polypeptide antibodies)” value with Lineage HIII mice [1] (50 μg) is listed as “very low or no immunogenic potential”. Also, in the series with human fibrinogen, the hydrolysis of fibrinogen result was “not able to hydrolyze fibrinogen”. In series [2], the “proteolytic activity on the FRET substrate” value is reported as “absence of recombinant polypeptide proteolytic activity”. For the same molecule, in series [3], the “cleavage of C3 component” value was “unable to cleave the C3 component”. Also, in the series on Lineage HIII mice [4], the “hemagglutination by serum of treated animals (antibody response to sheep erythrocytes)” value is “unable to promote hemagglutination”.
